Results taken from patent publication US10993940B2, “Methods of enhancing immune response” (NOVARTIS AG, priority 2016, dated 2021).
“Also recorded” adds a separate entry of the source.

Assays:
mTORC1 and mTORC2 = mTORC1 and mTORC2 (Homo sapiens, UniProt P42345); conditions: low concentration; cited from earlier work
[1] = human, in vivo, 10 mg
[2] = human, in vivo
Method: In some embodiments, dosing regimens contemplated herein comprise administering daily an amount of RAD001 ranging from about 0.015 mg to about 0.1 mg.

mTORC1 = mTORC1 (Homo sapiens, UniProt P42345); conditions: very low concentration; cited from earlier work
[3] = test system: respiratory tract infections; assay: Respiratory tract infections during the 6 weeks of study drug treatment; assay type: in vivo, human; conditions: BEZ235 10 mg daily
Method: (Top) The percentage of subjects in each cohort who reported having one or more respiratory tract infections during the 6 weeks they were treated with study drug is shown. (Bottom) The percentage of subjects who experienced respiratory tract infections of moderate severity during the 6 weeks they were treated with study drug is shown. No subjects in the study experienced respiratory tract infections that were assessed as severe. The numbers on top of each bar indicate the percent change relative to placebo.
The rate of infections during the 6 weeks subjects were treated with study drug was also examined. The main infections that occurred during the 6 weeks of study drug treatment were respiratory tract infections.

[4] = test system: immune system and interferon-induced gene expression in whole blood; assay: RNAseq gene expression profiling and pathway enrichment analysis in whole blood, baseline vs after 6 weeks of treatment; assay type: in vivo, Homo sapiens; conditions: for Up-regulated genes: Tukey outlier of log 2(FC post- vs pre-treatment); for Mean FC Genes In Pathway: whole blood, post- vs pre-treatment (6 weeks)
Method: Peripheral venous blood samples were collected into PAXgene Blood RNA tubes. Total RNA was purified from PAXgene collected blood and the quality and yield of the isolated RNA assessed using an Agilent 2100 Bioanalyzer (Agilent Technologies, Santa Clara, Calif., USA). RNA-Seq libraries were prepared from the RNA using the Illumina TruSeq Stranded Total RNA with the Ribo-Zero Globin Kit. This kit performed the removal of ribosomal RNA and globin mRNA in a single step. The obtained libraries were sequenced using the Illumina HiSeq2500 platform in paired-end mode to a read length of 2×76 base-pairs (bp). Images from the instrument were processed using the manufacturer's software to generate FASTQ sequence files. Read quality was assessed by running FastQC (version 0.10) on the FASTQ files. […] An average of 100 million 76 bp paired-end reads per sample were mapped to the Homo sapiens genome (version GRCh38) and RefSeq UCSC was used for human gene and transcript annotation. An in-house gene quantification pipeline was used to determine the number of counts mapping to each gene (Schuierer, S. & Roma, G. The exon quantification pipeline (EQP): a comprehensive approach to the quantification of gene, exon and junction expression from RNA-seq data. Nucleic acids research (2016)). On average, 88% of the total reads were mapped to the genome or the transcripts, and 30% of the aligned reads mapped to expressed sequences. […] Any gene with an average expression of less than one count per million in any treatment/time condition was considered undetectable and removed from further analysis. Count data for remaining genes was then normalized in R Statistical Computing Software (v3.1.3) using the voom normalization procedure located in the limma package (Law, C W, Chen, Y, Shi, W, and Smyth, G K (2014). Voom: precision weights unlock linear model analysis tools for RNA-seq read counts. Genome Biology 15, […]). […] Thus, we included the value of this principle component as an adjustment for technical variation in subsequent analysis. For each gene, the following linear mixed model was fit to the voom-normalized expression data, adjusting for relevant covariates (age, gender, and BMI) as well as PC1 using SAS v9.3 software. • proc mixed […]; • class SubjID Day Trt Gender; • model log 2[…] Age Gender Bmi/solution DDFM=KenwardRoger; • repeated Day/type=un subject=SubjID; • by gene; where log 2exprs refers to the voom-normalized expression measurement; Day refers to the timepoint the sample was taken (pre- or post-dose); Trt refers to the treatment group of the subject; PC1 refers to the value of PC1 for that sample; Age refers to the age of the subject; Gender refers to the sex of the subject; Bmi refers to the body mass index of the subject; and SubjID refers to the ID of the subject. Differential expression fold changes and p-values were obtained using the SAS estimate statement. […] These gene expression signatures consisted of the post-vs pre-treatment fold change and p-values for each treatment. […] Canonical pathways (c2.cp.v5.0.entrez.gmt) were downloaded from the canonical signatures database (http://software.broadinstitute.org/gsea/msigdb/). Signatures were defined as described in the “RNASeq Differential Expression Analysis” section. For each pathway and treatment response signature, a weighted KS test was performed as previously described (Subramanian et al. Gene set enrichment analysis: A knowledge-based approach for interpreting genome-wide expression profiles. Proc. Nat. Acad.

PI3K/mTOR = conditions: relatively higher concentrations; cited from earlier work
[5] = pH 3
[6] = oncology indications; cited from earlier work
infections = assay: Overall infection rate recorded by diary during the year following initiation of study drug; assay type: in vivo, human; conditions: elderly >=65 years
urinary tract infections = assay: Urinary tract infections during one year after study drug administration; assay type: in vivo, human
tooth or gum infections = assay: Tooth or gum infections during one year after study drug administration
Method: A total of 264 elderly volunteers ≥65 years of age, without unstable medical conditions, were enrolled in a randomized double blind placebo-controlled trial. […] Subjects were treated for 6 weeks with study drug and, after a 2 week drug-free interval, were given a 2014 seasonal influenza vaccine (Fluvax®, CSL Biotherapies). […] The subjects were then followed for another 9 months off study drug.
As an additional assessment of immune function, the overall infection rate in each treatment group was assessed by having subjects record any infections they experienced during the year following the initiation of study drug treatment in a diary that was reviewed by study investigators at each study visit.

[7] = REACTOME_INTERFERON_ALPHA_BETA_SIGNALING
[8] = REACTOME_INTERFERON_GAMMA_SIGNALING

In the case of `Cn1c(=O)n(-c2ccc(C(C)(C)C#N)cc2)c2c3cc(-c4cnc5ccccc5c4)ccc3ncc21` [BEZ235, 2-methyl-2-[4-(3-methyl-2-oxo-8-quinolin-3-yl-2,3-dihydro-imidazo[4,5-c]quinolin-1-yl)-phenyl]-propionitrile], the “concentration at which mTORC1 and mTORC2 inhibition predominates” value (mTORC1 and mTORC2) is listed as “less than 200 nmol/L”, the “inter-patient variability, AUClast,ss % CV” value [1] is listed as 39% and the tolerability [2] is listed as “well tolerated”. For the same compound, the “concentration at which mTORC1 inhibition predominates” value (mTORC1) was “less than or equal to 10 nmol/L”, the “incidence and severity of respiratory tract infections during the 6 weeks subjects were treated with study drug” value [3] was “reduction” and the Up-regulated genes ([4]; REACTOME_CYTOKINE_SIGNALING_IN_IMMUNE_SYSTEM, listed as Bez) was “IFITM3; FCGR1A; FCGR1B; HLA-DQA2; and CDK1”. The “Mean FC Genes In Pathway” value ([4]; REACTOME_CYTOKINE_SIGNALING_IN_IMMUNE_SYSTEM) was 0.02, the Up-regulated genes ([4]; REACTOME_IMMUNE_SYSTEM, listed as Bez) was “IFITM3; LILRB4; TRIM9; FCGR1A;; also recorded: FCGR1B; CD274; HLA-DQA2; RAP1GAP;; also recorded: TLR5; C1QA; C1QB; C3; C4BPA;; also recorded: PDCD1LG2; KLHL13; CD80; CDK1” and the “Mean FC Genes In Pathway” value ([4]; REACTOME_IMMUNE_SYSTEM) was 0.01. For the same compound, the Up-regulated genes [4, 7] was “IFITM3”, the “Mean FC Genes In Pathway” value [4, 7] was 0.03 and the Up-regulated genes [4, 8] was “FCGR1A; FCGR1B; HLA-DQA2”. The “Mean FC Genes In Pathway” value [4, 8] was 0.04, the Up-regulated genes ([4]; REACTOME_INTERFERON_SIGNALING) was “IFITM3; FCGR1A; FCGR1B, HLA-DQA2” and the “Mean FC Genes In Pathway” value ([4]; REACTOME_INTERFERON_SIGNALING) was 0.03. For the same compound, the “concentration of dual PI3K/mTOR inhibition” value (PI3K/mTOR) was “approximately 500 nmol/L”, the solubility [5] was “low” and the maximum tolerated dose [6] was 1200 mg daily.
For `CO[C@H]1C[C@@H]2CC[C@@H](C)[C@@](O)(O2)C(=O)C(=O)N2CCCC[C@H]2C(=O)O[C@H]([C@H](C)C[C@@H]2CC[C@@H](OCCO)[C@H](OC)C2)CC(=O)[C@H](C)/C=C(\C)[C@@H](O)[C@@H](OC)C(=O)[C@H](C)C[C@H](C)/C=C/C=C/C=C/1C` [RAD001, (1R,9S,12S,15R,16E,18R,19R,21R,23 S,24E,26E,28E,30S,32S,35R)-1,18-dihydroxy-12-{(1R)-2-[(1 S,3R,4R)-4-(2-hydroxyethoxy)-3-methoxycyclohexyl]-1-methylethyl}-19,30-dimethoxy-15,17,21,23,29,35-hexamethyl-11,36-dioxa-4-aza-tricyclo[30.3.1.04,9]hexatriaconta-16,24,26,28-tetraene-2,3,10,14,20-pentaone], the “Infection rate/person for one year after study drug administration” value (infections; RAD001 0.1 mg daily for 6 weeks) was 2.0, the “Infection rate/person for one year after study drug administration” value (infections; RAD001 0.5 mg daily for 6 weeks) was 2.1 and the “Percent of subjects with urinary tract infections during one year after study drug administration” value (urinary tract infections; RAD001 0.1 mg daily, N = 51) was 10%. For the same compound, the “Percent of subjects with urinary tract infections during one year after study drug administration” value (urinary tract infections; RAD001 0.5 mg daily, N = 46) was 11%, the “Number of tooth or gum infections per person for one year after study drug administration” value (tooth or gum infections; RAD001 0.1 mg daily) was “.02” and the “Number of tooth or gum infections per person for one year after study drug administration” value (tooth or gum infections; RAD001 0.5 mg daily) was “.02”.
